Data: patent US10301280B2 (Plexxikon Inc., priority 2012, dated 2019)

Key:
c-kit mutant D816V = c-kit mutant D816V (Homo sapiens (Human), UniProt P10721, D816V/DEL694-753); test: c-Kit mutant D816V biochemical assay (AlphaScreen); conditions: c-kit D816V biochemical inhibitory activity
Experimental: The c-kit mutant D816V (or kinase domain thereof) is an active kinase in AlphaScreen. IC50 values are determined with respect to inhibition of c-Kit mutant D816V kinase activity, where inhibition of phosphorylation of a peptide substrate is measured as a function of compound concentration. Compounds to be tested were dissolved in DMSO to a concentration of 20 mM. These were diluted 30 μl into 120 μl of DMSO (4 mM) and 1 μl was added to an assay plate. These were then serially diluted 1:3 (50 μl to 100 μl DMSO) for a total of 8 points. Plates were prepared such that each kinase reaction is 20 μl in 1× kinase buffer (25 mM HEPES, pH 7.2, 8 mM MgCl2, 2 mM MnCl2, 50 mM NaCl, 0.01% Brij, 1 mM DTT, 0.01% BSA), 5% DMSO and 10 μM ATP. Substrate was 30 nM biotin-(E4Y)10 (EMD Millipore, Cat#12-440). C-kit mutant D816V kinase was at 0.75 ng per sample. After incubation of the kinase reaction for 30 minutes at room temperature, 5 μl of donor beads (Streptavidin coated beads (Perkin Elmer Life Science) final concentration 7.5 μg/ml) in stop buffer (25 mM Hepes pH 7.5, 100 mM EDTA, 0.01% BSA) was added, the sample was mixed and incubated for 20 minutes at room temperature before adding 5 μl of acceptor beads (PY20 coated beads (Perkin Elmer Life Science) final concentration 7.5 ug/ml) in stop buffer. The samples were incubated for 60 minutes at room temperature and the signal per well was read on EnVision reader. Phosphorylated substrate results in binding of the PY20 antibody and association of the donor and acceptor beads such that signal correlates with kinase activity. The signal vs. compound concentration was used to determine the IC50.
Recombinant c-kit mutant D816V (residues 551-934, kinase insertion domain residues 694-753 deleted) with a 6x-histidine N-terminal tag was expressed in E. coli Arctic Express (DE3) RIL (Stratagene). Cells were grown in Terrific Broth (TB) media to an OD600 of 0.6 at 37° C. at which temperature was reduced to 10° C., protein was induced with 1.0 mM IPTG for 18 hours and harvested by centrifugation at 8000×g for 20 minutes. Cells were re-suspended in 0.1M KPO4 pH 8.0, 250 mM NaCl, 10% Glycerol, 0.75% NP-40, 25 mM Imidazole, 5 mM BME with 0.2 mg/ml Lysosyme, 2.0 mM PMSF, 25 μg/ml DNAse I, incubated in ice for 30 minutes and lyzed with a cell disruptor (MicroFluidics). The lysate was clarified by centrifugation at 20,000×g for 2 hours. The protein was captured with Talon resin (Clontech). Contaminating proteins were washed off with 25 mM Tris-HCl pH 8.3, 250 mM NaCl, 15% Glycerol, 1% Triton X-100, and protein eluted using 100 mM EDTA. The protein was further purified using Gel Filtration column 26/600 Superdex 200 (GE) in 50 mM Tris-HCl, pH 8.0, 250 mM NaCl, 15% Glycerol, 5 mM BME. The protein was aliquoted and flash-frozen in liquid Nitrogen.

[1] = tested on: BaF3-FL KIT D816V or BaF3-FL KIT V560G/D816V cell line; test: Cell-based assays of c-Kit mutant kinase activity (cell growth, ATPlite); conditions: at least one of the c-kit cell assays of Example 26
In short: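 BaF3 cells dependent on full-length human KIT (D816V or V560G/D816V) seeded at 1×10^4 cells/well in RPMI with 10% FBS. Eight-point 1:3 dilutions from 10 μM top final (0.2% DMSO), 3 days at 37° C., 5% CO2. ATPlite luminescence gave IC50.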

Sequence of c-kit mutant D816V (P10721 other isoform, or with tags, fused parts or gaps D816V/del 694-753): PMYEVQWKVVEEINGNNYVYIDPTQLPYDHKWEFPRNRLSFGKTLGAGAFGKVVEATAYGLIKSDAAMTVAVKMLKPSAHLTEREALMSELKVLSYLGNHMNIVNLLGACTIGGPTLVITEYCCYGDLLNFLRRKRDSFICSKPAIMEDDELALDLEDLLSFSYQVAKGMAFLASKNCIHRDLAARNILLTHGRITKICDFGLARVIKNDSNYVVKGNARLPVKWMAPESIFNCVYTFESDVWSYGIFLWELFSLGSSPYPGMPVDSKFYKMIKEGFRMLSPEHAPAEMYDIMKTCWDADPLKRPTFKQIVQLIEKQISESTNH

Compound | IC50 (c-kit mutant D816V) | IC50 [1]
N#Cc1cccc(C(=O)Nc2cnc3[nH]c(-c4ccc(F)cc4)cc3c2)c1 [P-2025, 3-cyano-N-[2-(4-fluorophenyl)-1H-pyrrolo[2,3-b]pyridin-5-yl]benzamide] | 10 to 200 µM | 
Cc1[nH]nc(NC(=O)c2cnc3[nH]c(-c4ccccc4)cc3c2)c1C [P-2071] | 10 to 200 µM | 
O=C(Nc1cnc2[nH]c(-c3ccccc3)cc2c1)c1cc(C2CC2)n[nH]1 [P-2009, 3-cyclopropyl-N-(2-phenyl-1H-pyrrolo[2,3-b]pyridin-5-yl)-1H-pyrazole-5-carboxamide] | 10 to 200 µM | 
Cc1[nH]nc(C(=O)Nc2cnc3[nH]c(-c4cccc5c4OC(F)(F)O5)cc3c2)c1C [P-2267, N-(2-(2,2-difluorobenzo[d][1,3]dioxol-4-yl)-1H-pyrrolo[2,3-b]pyridin-5-yl)-4,5-dimethyl-1H-pyrazole-3-carboxamide] |  | < 10 µM
CCCS(=O)(=O)Nc1cccc(-c2cc3cc(NC(=O)c4[nH]nc(C)c4C)cnc3[nH]2)c1 [P-2126, 3,4-dimethyl-N-[2-[3-(propylsulfonylamino)phenyl]-1H-pyrrolo[2,3-b]pyridin-5-yl]-1H-pyrazole-5-carboxamide] |  | < 10 µM
Cc1n[nH]c(C(=O)Nc2cnc3[nH]c(-c4cccc(C#N)c4)cc3c2)c1C [P-2128, N-[2-(3-cyanophenyl)-1H-pyrrolo[2,3-b]pyridin-5-yl]-3,4-dimethyl-1H-pyrazole-5-carboxamide] |  | < 10 µM
COc1nccc(-c2cc3cc(NC(=O)c4[nH]nc(C)c4C)cnc3[nH]2)c1Cl [P-2171, N-[2-(3-chloro-2-methoxy-4-pyridyl)-1H-pyrrolo[2,3-b]pyridin-5-yl]-3,4-dimethyl-1H-pyrazole-5-carboxamide] |  | < 10 µM
Cc1cc(CNc2cnc3[nH]c(-c4ccc(F)cc4)cc3c2)[nH]n1 [P-2142, 2-(4-fluorophenyl)-N-[(5-methyl-1H-pyrazol-3-yl)methyl]-1H-pyrrolo[2,3-b]pyridin-5-amine] |  | < 10 µM
Cc1[nH]nc(C(=O)Nc2cnc3[nH]cc(-c4cccc(N5CCNCC5)n4)c3c2)c1C [P-2190, 4,5-dimethyl-N-(3-(6-(piperazin-1-yl)pyridin-2-yl)-1H-pyrrolo[2,3-b]pyridin-5-yl)-1H-pyrazole-3-carboxamide] |  | < 10 µM
Cc1[nH]nc(C(=O)Nc2cnc3[nH]c(-c4ccc(F)cc4F)cc3c2)c1C [P-2260, N-(2-(2,4-difluorophenyl)-1H-pyrrolo[2,3-b]pyridin-5-yl)-4,5-dimethyl-1H-pyrazole-3-carboxamide] |  | < 10 µM
Cc1n[nH]c(C(=O)Nc2cnc3[nH]c(-c4cccc(Cl)c4C)cc3c2)c1C [P-2147, N-[2-(3-chloro-2-methyl-phenyl)-1H-pyrrolo[2,3-b]pyridin-5-yl]-3,4-dimethyl-1H-pyrazole-5-carboxamide] |  | < 10 µM
COc1nccc(-c2cc3cc(NC(=O)c4n[nH]c(C)c4C)cnc3[nH]2)c1Cl [P-2249, N-(2-(3-chloro-2-methoxypyridin-4-yl)-1H-pyrrolo[2,3-b]pyridin-5-yl)-4,5-dimethyl-1H-pyrazole-3-carboxamide] |  | < 10 µM
Cc1n[nH]c(CNc2cnc3[nH]c(-c4ccc(F)cc4)cc3c2)c1Cl [P-2141, N-[(4-chloro-5-methyl-1H-pyrazol-3-yl)methyl]-2-(4-fluorophenyl)-1H-pyrrolo[2,3-b]pyridin-5-amine] |  | < 10 µM
Cc1[nH]nc(C(=O)Nc2cnc3[nH]c(-c4cccnc4OC(F)F)cc3c2)c1C [P-2240, N-(2-(2-(difluoromethoxy)pyridin-3-yl)-1H-pyrrolo[2,3-b]pyridin-5-yl)-4,5-dimethyl-1H-pyrazole-3-carboxamide] |  | < 10 µM
CCc1cncc(-c2cc3cc(NC(=O)c4n[nH]c(C)c4C)cnc3[nH]2)c1 [P-2256, N-(2-(5-ethylpyridin-3-yl)-1H-pyrrolo[2,3-b]pyridin-5-yl)-4,5-dimethyl-1H-pyrazole-3-carboxamide] |  | < 10 µM
Cc1[nH]nc(C(=O)Nc2cnc3[nH]c(-c4ccnc(C(=O)NCCN5CCN(C)CC5)c4)cc3c2)c1C [P-2226, 4-(5-(4,5-dimethyl-1H-pyrazole-3-carboxamido)-1H-pyrrolo[2,3-b]pyridin-2-yl)-N-(2-(4-methylpiperazin-1-yl)ethyl)picolinamide] |  | < 10 µM
Cc1[nH]nc(C(=O)Nc2cnc3[nH]c(-c4ccnc(C(=O)N(C)C)c4)cc3c2)c1C [P-2224, 4-(5-(4,5-dimethyl-1H-pyrazole-3-carboxamido)-1H-pyrrolo[2,3-b]pyridin-2-yl)-N,N-dimethylpicolinamide] |  | < 10 µM
Cc1cc(Cl)ccc1-c1cc2cc(NC(=O)c3n[nH]c(C)c3C)cnc2[nH]1 [P-2258] |  | < 10 µM
Cc1n[nH]c(C(=O)Nc2cnc3[nH]c(-c4cnn(CC(C)C)c4)cc3c2)c1C [P-2083, N-[2-(1-isobutylpyrazol-4-yl)-1H-pyrrolo[2,3-b]pyridin-5-yl]-3,4-dimethyl-1H-pyrazole-5-carboxamide] |  | < 10 µM
Cc1[nH]nc(C(=O)Nc2cnc3[nH]c(-c4ccccc4C(F)F)cc3c2)c1C [P-2257, N-(2-(2-(difluoromethyl)phenyl)-1H-pyrrolo[2,3-b]pyridin-5-yl)-4,5-dimethyl-1H-pyrazole-3-carboxamide] |  | < 10 µM
Cc1[nH]nc(C(=O)Nc2cnc3[nH]c(-c4ccnc(C(=O)N5CCCC5)c4)cc3c2)c1C [P-2218, 4,5-dimethyl-N-(2-(2-(pyrrolidine-1-carbonyl)pyridin-4-yl)-1H-pyrrolo[2,3-b]pyridin-5-yl)-1H-pyrazole-3-carboxamide] |  | < 10 µM
Cc1c(C(=O)Nc2cnc3[nH]c(-c4ccccc4)cc3c2)n[nH]c1C(F)F [P-2234, 5-(difluoromethyl)-4-methyl-N-(2-phenyl-1H-pyrrolo[2,3-b]pyridin-5-yl)-1H-pyrazole-3-carboxamide] |  | < 10 µM
Cc1n[nH]c(C(=O)Nc2cnc3[nH]c(-c4cnn(C5CCN(C(=O)OC(C)(C)C)CC5)c4)cc3c2)c1C [P-2306, tert-butyl 4-[4-[5-[(3,4-dimethyl-1H-pyrazole-5-carbonyl)amino]-1H-pyrrolo[2,3-b]pyridin-2-yl]pyrazol-1-yl]piperidine-1-carboxylate] |  | < 10 µM
Cc1[nH]nc(C(=O)Nc2cnc3[nH]c(-c4ccnc(C(=O)NCCN5CCOCC5)c4)cc3c2)c1C [P-2225, 4-(5-(4,5-dimethyl-1H-pyrazole-3-carboxamido)-1H-pyrrolo[2,3-b]pyridin-2-yl)-N-(2-morpholinoethyl)picolinamide] |  | < 10 µM
Cc1[nH]nc(C(=O)Nc2cnc3[nH]c(-c4ccnc(F)c4)cc3c2)c1C [P-2245, N-(2-(2-fluoropyridin-4-yl)-1H-pyrrolo[2,3-b]pyridin-5-yl)-4,5-dimethyl-1H-pyrazole-3-carboxamide] |  | < 10 µM
COc1ccccc1-c1cc2cc(NC(=O)c3[nH]nc(C)c3C)cnc2[nH]1 [P-2135, N-[2-(2-methoxyphenyl)-1H-pyrrolo[2,3-b]pyridin-5-yl]-3,4-dimethyl-1H-pyrazole-5-carboxamide] |  | < 10 µM
Cc1n[nH]c(C(=O)Nc2cnc3[nH]c(-c4cccnc4)cc3c2)c1C [P-2088, 3,4-dimethyl-N-[2-(3-pyridyl)-1H-pyrrolo[2,3-b]pyridin-5-yl]-1H-pyrazole-5-carboxamide] |  | < 10 µM
Cc1cccc(Cl)c1C(=O)Nc1cnc2[nH]c(-c3ccc(F)cc3)cc2c1 [P-2022, 2-chloro-N-[2-(4-fluorophenyl)-1H-pyrrolo[2,3-b]pyridin-5-yl]-6-methyl-benzamide] |  | < 10 µM
COc1ccc(-c2cc3cc(NC(=O)c4n[nH]c(C)c4C)cnc3[nH]2)c(OC)n1 [P-2242, N-(2-(2,6-dimethoxypyridin-3-yl)-1H-pyrrolo[2,3-b]pyridin-5-yl)-4,5-dimethyl-1H-pyrazole-3-carboxamide] |  | < 10 µM
